The term IC50 denotes the concentration that gives 50% inhibition. The low end stands for greater potency, the high end for weaker potency. By Ki is commonly meant a measure of affinity in units of concentration, obtained from inhibition or displacement.

This note sets out measurements from ChEMBL document CHEMBL1135920, “Synthesis and in vitro antitumor activity of new deaza analogues of the nonpolyglutamatable antifolate N(alpha)-(4-amino-4-deoxypteroyl)-N(delta)-hemiphthaloyl-L-ornithine (PT523)” (J Med Chem, 2002).

In one assay the test system is CCRF-CEM. Nature of the assay: Inhibition the growth of CCRF-CEM human leukemic lymphoblasts in culture during 72 hr of continuous drug exposure. Type of assay: functional, cell-based.
Another assay concerns the target T1, Dihydrofolate reductase (Homo sapiens, UniProt P00374).
T1 sequence (P00374 whole entry): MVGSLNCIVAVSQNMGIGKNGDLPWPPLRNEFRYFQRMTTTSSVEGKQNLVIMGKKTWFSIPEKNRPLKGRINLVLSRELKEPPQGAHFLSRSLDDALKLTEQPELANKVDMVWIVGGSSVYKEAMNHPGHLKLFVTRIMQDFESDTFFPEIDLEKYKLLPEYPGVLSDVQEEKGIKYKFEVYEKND
Nature of the assay: Inhibitory activity against human recombinant Dihydrofolate reductase.

Each structure is given as a SMILES string.

The compound `Nc1cc(N)c2cc(CCc3ccc(C(=O)NC(CCCNC(=O)c4ccccc4C(=O)O)C(=O)O)cc3)ccc2c1` (centres undefined) returned an IC50 in the assay on CCRF-CEM of 0.69 nM. Moreover, the Ki on Dihydrofolate reductase came out at 0.00021 nM.

For the compound `Nc1cc(N)c2nc(CCc3ccc(C(=O)NC(CCCNC(=O)c4ccccc4C(=O)O)C(=O)O)cc3)cnc2c1` (centres undefined), in the assay on CCRF-CEM, the IC50 was 0.53 nM. Moreover, the Ki on Dihydrofolate reductase was 0.00035 nM.

Compound `C#CCC(Cc1cnc2nc(N)nc(N)c2n1)c1ccc(C(=O)NC(CCCNC(=O)c2ccccc2C(=O)O)C(=O)O)cc1` (centres undefined) returned an IC50 in the assay on CCRF-CEM of 1.3 nM. Besides, the Ki on Dihydrofolate reductase was determined as 0.0006 nM.

In the assay with CCRF-CEM, `Nc1nc(N)c2cc(CNc3ccc(C(=O)NC(CCCNC(=O)c4ccccc4C(=O)O)C(=O)O)cc3)ccc2n1` (centres undefined) showed a half-maximal inhibitory concentration (IC50) of 0.64 nM.

`CCC(Cc1cnc2nc(N)nc(N)c2n1)c1ccc(C(=O)NC(CCCNC(=O)c2ccccc2C(=O)O)C(=O)O)cc1` (centres undefined) yielded an IC50 with CCRF-CEM of 1.2 nM. Also, at Dihydrofolate reductase, the Ki worked out at 0.00062 nM.
